Reference: patent publication US20230050653A1, “ROCK INHIBITOR AND PREPARATION METHOD THEREFOR AND USE THEREOF” (WUHAN LL SCIENCE AND TECHNOLOGY DEVELOPMENT CO., LTD., priority 2019, published 2023)

Key:
ROCK1 kinase = molecular target: T1, ROCK1 kinase (Homo sapiens, UniProt Q13464); test: In vitro evaluation of ROCK1 kinase selectivity (HTRF KinEASE-STK time-resolved fluorometric assay); assay type: biochemical
T1 construct: purchased Invitrogen
Experimental: ROCK1 activity was detected using a 96-well (Cisbio) time-resolved fluorometric assay. The assay for ROCK1 was performed in the following assay buffer: 5 mM MgCl2 (Sigma), 1 mM DTT (Sigma) and 1× kinase buffer. The kinase buffer was used for dilution. 7.5 μL of ROCK1 kinase (Invitrogen) was added to a 96-well microplate to reach a final concentration of 0.4 ng/μL, and then 0.25 μL of test compound (DMSO content: 1%) was added. The mixture was incubated at room temperature for 0.5 h. To start the reaction, the kinase buffer was also used to mix ATP (Aladdin) and the substrate STK-substrate 2-biotin. 7.5 μL of the mixed solution was added to the microplate to reach final concentrations of 3.53 μM and 1 μM. The resulting mixture was incubated for 2 h at room temperature. […] was mixed with STK antibody-Cryptate, and then an appropriate volume of the mixture was mixed with an equal volume of streptavidin-XL665. 10 μL of the resulting mixture was added to stop the reaction. After further incubation for about 1 h, the microplate was read on a Molecular Devices SpectraMax i3x multifunctional microplate reader. The kinase buffer, the STK-substrate 2-biotin, the detection buffer, the STK antibody-Cryptate, and the streptavidin-XL665 were all from HTRF KinEASE-STK kit (Cisbio, 1000 tests, 61[…]).

ROCK2 kinase = molecular target: T2, ROCK2 kinase (Homo sapiens, UniProt O75116); test: In vitro evaluation of ROCK2 kinase activity (HTRF KinEASE-STK time-resolved fluorometric assay); assay type: biochemical
T2 construct: purchased Invitrogen PV3759
Experimental: ROCK2 activity screening. ROCK2 activity was detected using a 96-well (Cisbio) time-resolved fluorometric assay. The assay for ROCK2 was performed in the following assay buffer: 5 mM MgCl2 (Sigma), 1 mM DTT (Sigma) and 1× kinase buffer. The kinase buffer was used for dilution. 7.5 μL of ROCK2 kinase (Invitrogen, PV3759) was added to a 96-well microplate to reach a final concentration of 0.4 ng/μL, and then 0.25 μL of test compound (DMSO content: 1% (volume fraction)) was added. The mixture was incubated at room temperature for 0.5 h. To start the reaction, the kinase buffer was used to mix ATP (Aladdin) and the substrate STK-substrate 2-biotin. 7.5 μL of the mixed solution was added to the microplate to reach final concentrations of 6.739 μM and 1 μM. The resulting mixture was incubated for 2 h at room temperature. 5 mL of detection buffer was mixed with STK antibody-Cryptate, and then an appropriate volume of the mixture was mixed with an equal volume of streptavidin-XL665. 10 μL of the resulting mixture was added to the microplate to stop the reaction. After further incubation for about 1 h, the microplate was read on a Molecular Devices SpectraMax i3x multifunctional microplate reader. The kinase buffer, the STK-substrate 2-biotin, the detection buffer, the STK antibody-Cryptate, and the streptavidin-XL665 were all from HTRF KinEASE-STK kit (Cisbio, 1000 tests, 61[…]).

T2 sequence (O75116 whole entry): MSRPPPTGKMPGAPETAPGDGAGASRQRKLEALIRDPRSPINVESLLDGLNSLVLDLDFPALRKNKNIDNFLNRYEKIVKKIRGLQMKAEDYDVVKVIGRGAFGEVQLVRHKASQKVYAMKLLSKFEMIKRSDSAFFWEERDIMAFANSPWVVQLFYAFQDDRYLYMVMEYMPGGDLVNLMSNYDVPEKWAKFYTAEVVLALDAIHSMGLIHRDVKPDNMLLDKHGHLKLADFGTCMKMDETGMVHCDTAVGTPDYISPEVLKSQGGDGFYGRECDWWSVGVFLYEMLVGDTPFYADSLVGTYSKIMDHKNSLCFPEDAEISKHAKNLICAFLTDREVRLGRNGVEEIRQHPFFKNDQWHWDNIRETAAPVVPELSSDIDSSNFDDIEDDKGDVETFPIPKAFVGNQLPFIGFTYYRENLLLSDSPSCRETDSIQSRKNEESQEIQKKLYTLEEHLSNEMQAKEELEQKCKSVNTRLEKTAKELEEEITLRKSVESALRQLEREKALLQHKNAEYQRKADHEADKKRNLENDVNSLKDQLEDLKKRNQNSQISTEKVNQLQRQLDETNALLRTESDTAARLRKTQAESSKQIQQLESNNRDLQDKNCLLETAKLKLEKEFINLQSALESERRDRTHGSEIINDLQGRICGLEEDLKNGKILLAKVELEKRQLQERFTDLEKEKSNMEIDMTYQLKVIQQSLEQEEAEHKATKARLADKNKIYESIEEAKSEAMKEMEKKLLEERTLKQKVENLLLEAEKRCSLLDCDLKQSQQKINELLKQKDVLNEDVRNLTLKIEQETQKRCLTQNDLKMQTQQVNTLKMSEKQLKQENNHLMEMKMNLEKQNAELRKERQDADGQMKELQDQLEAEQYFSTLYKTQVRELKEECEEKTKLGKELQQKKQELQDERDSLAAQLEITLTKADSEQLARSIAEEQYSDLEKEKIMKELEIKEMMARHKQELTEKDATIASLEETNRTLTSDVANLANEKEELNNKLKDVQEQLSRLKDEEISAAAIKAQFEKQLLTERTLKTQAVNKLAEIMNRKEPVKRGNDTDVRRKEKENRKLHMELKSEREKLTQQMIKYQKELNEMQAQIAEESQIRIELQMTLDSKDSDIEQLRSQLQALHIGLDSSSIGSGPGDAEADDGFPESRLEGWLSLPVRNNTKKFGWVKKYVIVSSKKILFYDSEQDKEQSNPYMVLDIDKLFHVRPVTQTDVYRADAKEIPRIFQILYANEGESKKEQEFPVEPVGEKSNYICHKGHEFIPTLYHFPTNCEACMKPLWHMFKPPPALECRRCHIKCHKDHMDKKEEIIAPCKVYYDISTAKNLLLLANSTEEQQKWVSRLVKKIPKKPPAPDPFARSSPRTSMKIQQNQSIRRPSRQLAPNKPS
T1 sequence (Q13464 whole entry): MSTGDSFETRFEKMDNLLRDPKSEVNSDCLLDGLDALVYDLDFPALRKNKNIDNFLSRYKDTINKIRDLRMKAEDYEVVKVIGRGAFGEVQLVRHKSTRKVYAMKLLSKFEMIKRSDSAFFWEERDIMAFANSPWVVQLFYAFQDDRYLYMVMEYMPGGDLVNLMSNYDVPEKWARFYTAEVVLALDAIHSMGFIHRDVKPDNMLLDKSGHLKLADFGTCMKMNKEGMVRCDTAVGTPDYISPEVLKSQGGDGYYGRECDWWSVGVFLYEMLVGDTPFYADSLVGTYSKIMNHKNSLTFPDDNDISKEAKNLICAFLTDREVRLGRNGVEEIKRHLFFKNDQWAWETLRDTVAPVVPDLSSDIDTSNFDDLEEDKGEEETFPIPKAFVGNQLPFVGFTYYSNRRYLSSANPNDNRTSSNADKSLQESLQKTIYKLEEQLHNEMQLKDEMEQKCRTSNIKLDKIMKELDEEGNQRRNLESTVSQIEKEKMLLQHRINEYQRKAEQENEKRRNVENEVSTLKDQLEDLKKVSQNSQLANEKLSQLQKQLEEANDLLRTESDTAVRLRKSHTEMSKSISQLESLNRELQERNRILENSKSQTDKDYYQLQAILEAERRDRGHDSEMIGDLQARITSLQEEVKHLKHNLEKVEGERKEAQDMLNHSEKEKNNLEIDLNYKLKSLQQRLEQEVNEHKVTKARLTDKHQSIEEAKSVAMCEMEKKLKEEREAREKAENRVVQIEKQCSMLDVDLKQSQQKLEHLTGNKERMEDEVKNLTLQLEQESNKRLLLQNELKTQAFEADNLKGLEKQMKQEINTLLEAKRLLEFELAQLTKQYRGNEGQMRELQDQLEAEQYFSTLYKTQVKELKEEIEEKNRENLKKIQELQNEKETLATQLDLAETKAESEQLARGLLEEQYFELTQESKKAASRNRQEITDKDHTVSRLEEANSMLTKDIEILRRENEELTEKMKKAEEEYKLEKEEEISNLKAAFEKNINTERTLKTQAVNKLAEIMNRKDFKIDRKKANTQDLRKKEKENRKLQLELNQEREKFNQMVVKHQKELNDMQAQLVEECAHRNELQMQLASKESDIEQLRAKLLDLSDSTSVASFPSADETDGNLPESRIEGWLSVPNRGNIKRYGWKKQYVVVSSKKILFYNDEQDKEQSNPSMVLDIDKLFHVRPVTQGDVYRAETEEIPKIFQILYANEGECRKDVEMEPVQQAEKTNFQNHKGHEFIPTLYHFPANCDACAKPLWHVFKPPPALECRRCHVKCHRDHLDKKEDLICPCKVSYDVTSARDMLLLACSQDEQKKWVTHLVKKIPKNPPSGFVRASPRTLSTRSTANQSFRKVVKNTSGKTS

IC50 (ROCK1 kinase) [nM] | IC50 (ROCK2 kinase) [nM] | Compound
50 to 500 | ≤ 50 | COc1cc(F)cc(C(CN(C)C)NC(=O)N2CCc3cc(-c4c[nH]nc4F)c(F)cc32)c1 (racemic) [Compound T388, (+/−)N-(2-(dimethylamino)-1-(3-fluoro-5-methoxyphenyl)ethyl)-6-fluoro-5-(3-fluoro-1H-pyrazol-4-yl)indoline-1-carboxamide]
500 to 5000 | 50 to 500 | COc1cc(F)cc(CN(C)C(=O)N2CCc3cc(-c4cn[nH]c4)ccc32)c1 [Compound T206, N-(3-fluoro-5-methoxybenzyl)-N-methyl-5-(1H-pyrazol-4-yl)indoline-1-carboxamide]
≤ 50 | ≤ 50 | O=C(NCc1ccccc1)N1CCc2cc(-c3cn[nH]c3)ccc21 [Compound T207, N-benzyl-5-(1H-pyrazol-4-yl)indoline-1-carboxamide]
≤ 50 | ≤ 50 | COc1cc(F)cc(CNC(=O)N2CCc3ccc(-c4cn[nH]c4)cc3C2)c1 [Compound T208, N-(3-fluoro-5-methoxybenzyl)-7-(1H-pyrazol-4-yl)-3,4-dihydroisoquinoline-2(1H)-carboxamide]
50 to 500 | 50 to 500 | COc1cc(F)cc(CNC(=O)N2Cc3ccc(-c4cn[nH]c4)cc3C2)c1 [Compound T209, N-(3-fluoro-5-methoxybenzyl)-5-(1H-pyrazol-4-yl)isoindoline-2-carboxamide]
50 to 500 | 50 to 500 | COc1cc(F)cc(CNC(=O)n2ccc3cc(-c4cn[nH]c4)ccc32)c1 [Compound T210]
500 to 5000 | 500 to 5000 | COc1cc(F)cc(CN(CC2COC2)C(=O)N2CCc3cc(-c4cn[nH]c4)ccc32)c1 [Compound T212]
≤ 50 | ≤ 50 | COCCOc1cc(F)cc(CNC(=O)N2CCc3cc(-c4cn[nH]c4)ccc32)c1 [Compound T213]
50 to 500 | 50 to 500 | COc1cc(F)cc(CN(C(=O)N2CCc3cc(-c4cn[nH]c4)ccc3C2)C2COC2)c1 [Compound T214]
500 to 5000 | 500 to 5000 | COc1cc(F)cc(CN(C(=O)N2CCc3cc(-c4cn[nH]c4)ccc32)C2CCOCC2)c1 [Compound T215]
50 to 500 | 50 to 500 | COc1cc(F)cc(CN(C(=O)N2CCc3cc(-c4cn[nH]c4)ccc3C2)C2CCOCC2)c1 [Compound T216]
50 to 500 | 50 to 500 | COc1cc(F)cc(CNC(=O)N2CCc3cc(-c4c[nH]nn4)ccc32)c1 [Compound T217, N-(3-fluoro-5-methoxybenzyl)-5-(1H-1,2,3-triazol-4-yl)indoline-1-carboxamide]
50 to 500 | 500 to 5000 | COc1cc(F)cc(CNC(=O)N2CCc3cc(-c4cn[nH]c4)cnc32)c1 [Compound T218, N-(3-fluoro-5-methoxybenzyl)-5-(1H-pyrazol-4-yl)-2,3-dihydro-1H-pyrrolo(2,3-b)pyridine-1-carboxamide]
≤ 50 | ≤ 50 | COc1cc(F)cc(CNC(=O)N2CCc3cc(-c4cn[nH]c4)ncc32)c1 [Compound T219]
50 to 500 | 50 to 500 | COc1cc(F)cc(CNC(=O)N2CCc3nc(-c4cn[nH]c4)ccc32)c1 [Compound T220, N-(3-fluoro-5-methoxybenzyl)-5-(1H-pyrazol-4-yl)-2,3-dihydro-1H-pyrrolo(3,2-b)pyridine-1-carboxamide]
50 to 500 | 50 to 500 | COc1cc(F)cc(CNC(=O)N2CCc3cc(-c4cn[nH]c4)cc(Cl)c32)c1 [Compound T221, 7-chloro-N-(3-fluoro-5-methoxybenzyl)-5-(1H-pyrazol-4-yl)indoline-1-carboxamide]
≤ 50 | ≤ 50 | COc1cc(F)cc(CNC(=O)N2CCc3cc(-c4cn[nH]c4)c(Cl)cc32)c1 [Compound T222, 6-chloro-N-(3-fluoro-5-methoxybenzyl)-5-(1H-pyrazol-4-yl)indoline-1-carboxamide]
≤ 50 | ≤ 50 | COc1cc(F)cc(CNC(=O)N2CC(C)(C)c3cc(-c4cn[nH]c4)ccc32)c1 [Compound T223]
50 to 500 | 50 to 500 | COc1cc(F)cc(CNC(=O)N2CCc3nc(-c4cn[nH]c4)sc3C2)c1 [Compound T224, N-(3-fluoro-5-methoxybenzyl)-2-(1H-pyrazol-4-yl)-6,7-dihydrothiazolo[5,4-c]pyridine-5(4H)-carboxamide]
≤ 50 | ≤ 50 | COc1cc(F)cc(CNC(=O)N2CCc3cc(-c4cn[nH]c4)c(F)cc32)c1 [Compound T225, 6-fluoro-N-(3-fluoro-5-methoxybenzyl)-5-(1H-pyrazol-4-yl)indoline-1-carboxamide]
50 to 500 | ≤ 50 | O=C(NCc1cc(F)cc(F)c1)N1CCc2cc(-c3cn[nH]c3)ccc21 [Compound T226]
≤ 50 | ≤ 50 | COc1cc(CNC(=O)N2CCc3cc(-c4cn[nH]c4)ccc32)ccn1 [Compound T227]

IC50 (ROCK1 kinase) [nM] | IC50 (ROCK2 kinase) [nM] | Compound
≤ 50 | ≤ 50 | COc1cc(F)cc(CNC(=O)N2CCc3c2cc(F)c(-c2cn[nH]c2)c3F)c1 [Compound T228, 4,6-difluoro-N-(3-fluoro-5-methoxybenzyl)-5-(1H-pyrazol-4-yl)indoline-1-carboxamide]
≤ 50 | ≤ 50 | COc1cc(F)cc(CNC(=O)N2CCCc3nc(-c4cn[nH]c4)sc32)c1 [Compound T229]
50 to 500 | 50 to 500 | COc1cc(F)cc(CNC(=O)N2CCCc3sc(-c4cn[nH]c4)nc32)c1 [Compound T230]
≤ 50 | ≤ 50 | COc1cc(F)cc(CNC(=O)N2CCc3nc(-c4cn[nH]c4)ncc32)c1 [Compound T231]
≤ 50 | ≤ 50 | COc1cc(F)cc(CNC(=O)c2cnc3cc(-c4cn[nH]c4)ccn23)c1 [Compound T233]
≤ 50 | ≤ 50 | COc1cc(F)cc(CNC(=O)c2ncc3cc(-c4cn[nH]c4)ccn23)c1 [Compound T234]
≤ 50 | ≤ 50 | COc1cc(F)cc(CNC(=O)c2ccc3nc(-c4cn[nH]c4)ccn23)c1 [Compound T235]
≤ 50 | ≤ 50 | COc1cc(F)cc(CNC(=O)c2nn(C)c3cc(-c4cn[nH]c4)ccc23)c1 [Compound T236]
≤ 50 | ≤ 50 | COc1cc(F)cc(CNC(=O)c2ccn3cc(-c4cn[nH]c4)ccc23)c1 [Compound T237]
≤ 50 | ≤ 50 | COc1cc(F)cc(CNC(=O)c2cnn3cc(-c4cn[nH]c4)ccc23)c1 [Compound T239]
500 to 5000 | 500 to 5000 | O=C(NCc1ccn[nH]1)N1CCc2cc(-c3cn[nH]c3)ccc21 [Compound T240]
50 to 500 | 50 to 500 | Cn1cc(CNC(=O)N2CCc3cc(-c4cn[nH]c4)ccc32)cn1 [Compound T241]
50 to 500 | 50 to 500 | Cn1cnc(CNC(=O)N2CCc3cc(-c4cn[nH]c4)ccc32)c1 [Compound T242]
500 to 5000 | 500 to 5000 | COc1cc(F)cc(CN(Cc2ccccc2)C(=O)N2CCc3cc(-c4cn[nH]c4)ccc32)c1 [Compound T243]
50 to 500 | 50 to 500 | CN(C)CCN(Cc1ccccc1)C(=O)N1CCc2cc(-c3cn[nH]c3)ccc21 [Compound T244]
50 to 500 | 50 to 500 | O=C(NCc1ccccc1)N1CCc2cc(-c3ccncc3)ccc21 [Compound T245]
500 to 5000 | 500 to 5000 | O=C(NCc1ccccc1)N1CCc2cc(-c3ccc4[nH]ccc4c3)ccc21 [Compound T246]
50 to 500 | 50 to 500 | O=C(NCc1ccc2[nH]cnc2c1)N1CCc2cc(-c3cn[nH]c3)ccc21 [Compound T247]
50 to 500 | 50 to 500 | CN(C)CCC(NC(=O)N1CCc2cc(-c3cn[nH]c3)ccc21)c1ccccc1 (stereo not shown) [Compound T248]
500 to 5000 | 500 to 5000 | O=C(NC(c1ccccc1)c1ccccc1)N1CCc2cc(-c3cn[nH]c3)ccc21 [Compound T249]
– | 50 to 500 | COc1cccc(F)c1C(CO)NC(=O)N1CCc2cc(-c3cn[nH]c3)c(F)cc21 (stereo not shown) [Compound T363, 6-fluoro-N-(1-(2-fluoro-6-methoxyphenyl)-2-hydroxyethyl)-5-(1H-pyrazol-4-yl)indoline-1-carboxamide]
